Read-outs that look alike come from different tables or passages of the source.
Legend:
Type in all cases: cell-based
[1] = target: T1, Ba/F3 Pro B-cell line expressing TEL-human MERTK fusion domain (Homo sapiens, UniProt Q12866)
T1 sequence (Q12866 587-858 limits assumed): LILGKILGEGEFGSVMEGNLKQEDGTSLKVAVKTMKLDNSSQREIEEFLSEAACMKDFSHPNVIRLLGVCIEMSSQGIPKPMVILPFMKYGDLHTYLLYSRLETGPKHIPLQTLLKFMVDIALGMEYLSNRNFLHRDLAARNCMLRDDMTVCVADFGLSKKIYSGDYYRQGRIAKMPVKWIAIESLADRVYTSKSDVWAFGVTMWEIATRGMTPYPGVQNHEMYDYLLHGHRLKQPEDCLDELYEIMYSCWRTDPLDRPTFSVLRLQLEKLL
In short: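 Ba/F3 cells dependent on BCR-AXL or TEL-MERTK fusion kinase (IL3-free; IL3 only for control lines) treated with compound 48 h at 37 °C, 0.25% DMSO. Viability by CellTiter-Glo luminescence; IC50 for half-maximal inhibition of survival from 4-parameter variable-slope fit.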

[2] = target: T2, recombinant human AXL expressed in live cells (HEK, AXL-Nanoluc fusion vector) (Homo sapiens, UniProt P30530); experiment: Assay 3 AXL cellular target engagement (NanoBRET TE) assay
T2 construct: host or cells: HEK
T2 sequence (P30530 26-894): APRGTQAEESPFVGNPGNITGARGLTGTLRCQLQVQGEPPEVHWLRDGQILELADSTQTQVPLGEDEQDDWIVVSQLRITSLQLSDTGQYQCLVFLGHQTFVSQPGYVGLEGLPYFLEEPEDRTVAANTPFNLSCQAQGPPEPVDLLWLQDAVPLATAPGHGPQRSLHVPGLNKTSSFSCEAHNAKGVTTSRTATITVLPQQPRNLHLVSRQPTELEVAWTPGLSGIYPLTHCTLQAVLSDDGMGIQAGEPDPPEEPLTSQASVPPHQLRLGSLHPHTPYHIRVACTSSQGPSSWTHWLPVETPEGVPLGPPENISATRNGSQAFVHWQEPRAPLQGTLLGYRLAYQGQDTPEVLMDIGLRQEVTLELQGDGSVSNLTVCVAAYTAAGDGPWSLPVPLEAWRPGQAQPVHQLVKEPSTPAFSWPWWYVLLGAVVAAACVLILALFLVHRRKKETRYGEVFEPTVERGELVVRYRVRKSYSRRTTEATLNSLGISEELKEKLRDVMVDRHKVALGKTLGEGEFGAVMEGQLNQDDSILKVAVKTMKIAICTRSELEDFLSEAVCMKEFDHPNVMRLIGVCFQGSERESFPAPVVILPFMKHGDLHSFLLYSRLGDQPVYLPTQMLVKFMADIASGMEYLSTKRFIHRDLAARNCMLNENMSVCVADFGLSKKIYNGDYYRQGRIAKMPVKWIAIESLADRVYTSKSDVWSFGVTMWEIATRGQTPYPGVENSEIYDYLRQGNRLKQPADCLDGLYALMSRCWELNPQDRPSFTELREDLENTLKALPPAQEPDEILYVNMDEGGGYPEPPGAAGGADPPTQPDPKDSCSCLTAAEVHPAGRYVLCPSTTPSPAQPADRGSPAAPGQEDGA
Method: Assay 3—AXL Cellular Target Engagement (TE) Assay
Compound affinities for recombinant human AXL expressed in live cells were assessed via the Promega NanoBRET TE assay technology. Human Embryonic Kidney (HEK) cells were transiently transfected with the AXL-Nanoluc fusion vector (Promega Cat NV1071) using Fugene HD reagent (Promega E2311). […] Incubations were conducted for 2 h at 37° C., after which 20 μl NanoGlo substrate/inhibitor mix (Promega N2161) was added to each well for 2-3 min. The plate was then read on a BMG Pherastar FSX using a NanoBRET filter to record donor emission at 450 nm and acceptor fluorophore emission at 610 nm. From this the BRET ratio (acceptor 610 nm/donor 450 nm) for each data point was calculated.

[3] = test system: BCR-Ba/F3 control cell line; experiment: Assay 5 Ba/F3 cell survival assay, BCR-none control line; conditions: Mus musculus, BaF3
Method: Assay 5—Ba/F3 Cell Survival Assays.
The inhibitory potencies of compounds were assessed in a Ba/F3 cell survival assay, using the Ba/F3 Pro B-cell line, recombinantly expressing a BCR-human AXL kinase domain fusion protein (pACD320/AXL, Advanced Cellular Dynamics Inc), TEL-human MERTK fusion domain (pACD1000/MERTK, Advanced Cellular Dynamics Inc), TEL-human Tyro3 fusion domain (pACD1000/TYRO3, Advanced Cellular Dynamics Inc), or control TEL-none (ACD320, Advanced Cellular Dynamics Inc) BRC-none constructs (ACD1000, Advanced Cellular Dynamics Inc). 10 ng/mL recombinant murine IL3 (R&D, 403-ML-010) was included in the media when propagating negative control TEL-none or BCR-none lines only. Cells were maintained in RMPI 1640 (Corning 15-040-CV) culture media containing 10% heat inactivated semi-synthetic FBS (RMBIO FGR-BBT), 2 mM L-Glutamine (Sigma, G7513), 100 IU/mL Penicillin-[…] Streptomycin (Sigma, P4333), and 500 ng/mL Puromycin (Sigma, P8833). Experiments were performed in 50 μl growth media, including the test compounds of interest, and dispensing 5000 cells/well in logarithmic-phase growth into a 384 well white Optiplate (Perkin Elmer 6007299). […] The final assay DMSO concentration was 0.25%. […]
The plate was then equilibrated for 5 min at room temperature and luminescence read on a BMG Pherastar FSX using the LUM plus optic module. […]

[4] = cell survival, 48 h, CellTiter-Glo; read-out: TEL-MERTK Ba/F3 IC50

SMILES	IC50 [1, 4] [nM]	IC50 [2] [nM]	IC50 [3] [nM]	IC50 ([1]; read-out: TEL-MERTK Ba/F3 IC50; cell survival, 48 h, CellTiter-Glo) [nM]
CN1CCC(NC(=O)c2cc3c(Nc4ccc(NC(=O)c5cccn(-c6ccccc6)c5=O)cc4)ccnc3cn2)CC1 [Example 3, N-(1-methyl-4-piperidyl)-4-[4-[(2-oxo-1-phenyl-pyridine-3-carbonyl)amino]anilino]-1,7-naphthyridine-6-carboxamide]	314	7		
O=C(Nc1ccc(Oc2ccnc3cnc(N4CCNCC4)cc23)cc1)c1cccn(-c2ccc(F)cc2)c1=O [Example 12.2, 1-(4-fluorophenyl)-2-oxo-N-[4-[(6-piperazin-1-yl-1,7-naphthyridin-4-yl)oxy]phenyl]pyridine-3-carboxamide]	56	28.8		
CC(C)n1cc(C(=O)Nc2ccc(Oc3ccnc4cnc(N5CCNCC5)cc34)cc2)c(=O)n(-c2ccccn2)c1=O [Example 12.3, 1-isopropyl-2,4-dioxo-N-[4-[(6-piperazin-1-yl-1,7-naphthyridin-4-yl)oxy]phenyl]-3-(2-pyridyl)pyrimidine-5-carboxamide]	431	80.8		
CC(C)n1cc(C(=O)Nc2ccc(Oc3ccnc4cnc(N5CCNCC5)cc34)cc2)c(=O)n(-c2ccc(F)cn2)c1=O [Example 12.4, 3-(5-fluoro-2-pyridyl)-1-isopropyl-2,4-dioxo-N-[4-[(6-piperazin-1-yl-1,7-naphthyridin-4-yl)oxy]phenyl]pyrimidine-5-carboxamide]	100	12.8		
CC(C)n1cc(C(=O)Nc2ccc(Oc3ccnc4cnc(N5CCNCC5)cc34)cc2)c(=O)c(-c2ccc(F)cc2)c1 [Example 13, 5-(4-Fluorophenyl)-1-isopropyl-4-oxo-N-[4-[(6-piperazin-1-yl-1,7-naphthyridin-4-yl)oxy]phenyl]pyridine-3-carboxamide]	31	7.1		
Cn1cc(C(=O)Nc2ccc(Oc3ccnc4cnc(N5CCNCC5)cc34)cc2)c(=O)c(-c2ccc(F)cc2)c1 [Example 13.1, 5-(4-fluorophenyl)-1-methyl-4-oxo-N-[4-[(6-piperazin-1-yl-1,7-naphthyridin-4-yl)oxy]phenyl]pyridine-3-carboxamide]	50	15.9		
C[C@H](CO)n1cc(C(=O)Nc2ccc(Oc3ccnc4cnc(C(=O)NC5CCN(C)CC5)cc34)cc2)c(=O)n(-c2ccc(F)cc2)c1=O [Example 14, 4-[4-[[3-(4-Fluorophenyl)-2,4-dioxo-1-[(1R)-2-hydroxy-1-methyl-ethyl]pyrimidine-5-carbonyl]amino]phenoxy]-N-(1-methyl-4-piperidyl)-1,7-naphthyridine-6-carboxamide]	80	31		
CN1CCC(NC(=O)c2cc3c(Oc4ccc(NC(=O)c5cn(C6CC6)c(=O)n(-c6ccc(F)cc6)c5=O)cc4)ccnc3cn2)CC1 [Example 15, 4-[4-[[1-Cyclopropyl-3-(4-fluorophenyl)-2,4-dioxo-pyrimidine-5-carbonyl]amino]phenoxy]-N-(1-methyl-4-piperidyl)-1,7-naphthyridine-6-carboxamide]	159	33.2		
O=C(Nc1ccc(Oc2ccnc3cnc(N4CCN(C5COC5)CC4)cc23)cn1)c1ccnn(-c2ccc(F)cc2)c1=O [Example 20, 2-(4-fluorophenyl)-N-[5-[[6-[4-(oxetan-3-yl)piperazin-1-yl]-1,7-naphthyridin-4-yl]oxy]-2-pyridyl]-3-oxo-pyridazine-4-carboxamide]	20		830	
CC(C)n1cc(C(=O)Nc2ccc(Oc3ccnc4cnc(C(=O)NC5CCN(C)CC5)cc34)cn2)c(=O)n(-c2ccc(F)cc2)c1=O [Example 27.5, 4-[[6-[[3-(4-fluorophenyl)-1-isopropyl-2,4-dioxo-pyrimidine-5-carbonyl]amino]-3-pyridyl]oxy]-N-(1-methyl-4-piperidyl)-1,7-naphthyridine-6-carboxamide]	9	14		
Cc1cc(NC(=O)c2cccn(-c3ccccc3)c2=O)ccc1Oc1ccnc2cnc(N3CCNCC3)cc12 [Example 30, N-[3-methyl-4-[(6-piperazin-1-yl-1,7-naphthyridin-4-yl)oxy]phenyl]-2-oxo-1-phenyl-pyridine-3-carboxamide]		339		466
CN1CCC(NC(=O)c2cc3c(Oc4ccc(NC(=O)c5cccn(-c6ccccc6)c5=O)cc4F)ccnc3cn2)CC1 [Example 33, 4-[2-fluoro-4-[(2-oxo-1-phenyl-pyridine-3-carbonyl)amino]phenoxy]-N-(1-methyl-4-piperidyl)-1,7-naphthyridine-6-carboxamide]	58	63.8		
O=C(Nc1ccc(Oc2ccnc3cnc(N4CCNCC4)cc23)cc1)c1cn(C2CC2)c(=O)n(-c2ccc(F)cc2)c1=O [Example 36, 1-cyclopropyl-3-(4-fluorophenyl)-2,4-dioxo-N-[4-[(6-piperazin-1-yl-1,7-naphthyridin-4-yl)oxy]phenyl]pyrimidine-5-carboxamide]	160	25.7		
CN1CCC(NC(=O)c2cc3c(Oc4ccc(NC(=O)c5cn(C)cc(-c6ccc(F)cc6)c5=O)cc4)ccnc3cn2)CC1 [Example 37, 4-[4-[[5-(4-fluorophenyl)-1-methyl-4-oxo-pyridine-3-carbonyl]amino]phenoxy]-N-(1-methyl-4-piperidyl)-1,7-naphthyridine-6-carboxamide]	50	33.5		
CC(C)n1cc(C(=O)Nc2ccc(Oc3ccnc4cnc(C(=O)NC5CCN(C)CC5)cc34)cc2)c(=O)c(-c2ccc(F)cc2)c1 [Example 37.1, 4-[4-[[5-(4-fluorophenyl)-1-isopropyl-4-oxo-pyridine-3-carbonyl]amino]phenoxy]-N-(1-methyl-4-piperidyl)-1,7-naphthyridine-6-carboxamide]	8	6.1		

Source: US20230203029A1 (priority 2020, published 2023)
